Results published in patent US20260285850A1, “SUBSTITUTED OXAZOLIDINONES AND IMIDAZOLINONES AS HERBICIDES” (FMC CORPORATION, priority 2023, published 2026).

How the values were obtained:
Assay type in all cases: in vivo
[1] = tested on: barnyardgrass (Echinochloa crus-galli); test: Test A preemergence soil spray, visual injury rating 0-100; settings: 10 days, 0 = no effect, 100 = complete control; for Barnyardgrass plant response rating (0-100): 31 g ai/ha; for Barnyardgrass plant response rating (0 to 100 scale): 125 g ai/ha
Summary of the method: (§1)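 Plants were grown in a loam soil-sand blend and treated with test chemical in a non-phytotoxic solvent mixture containing surfactant, either sprayed on soil preemergence or applied postemergence to 2-10 cm plants. After 10 days in a greenhouse, injury was scored visually against untreated controls, 0 meaning no effect and 100 complete control.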

[2] = tested on: blackgrass (Alopecurus myosuroides); test: as above; settings: 10 days, 0 = no effect, 100 = complete control; for Blackgrass plant response rating (0-100): 31 g ai/ha; for Blackgrass plant response rating (0 to 100 scale): 125 g ai/ha
Summary of the method: as §1

corn (Zea mays) [3] = test: as above; settings: 10 days, 0 = no effect, 100 = complete control; for Corn plant response rating (0-100): 31 g ai/ha; for Corn plant response rating (0 to 100 scale): 125 g ai/ha
Summary of the method: as §1

kochia (Bassia scoparia) [4] = test: as above; settings: 10 days, 0 = no effect, 100 = complete control; for Kochia plant response rating (0-100): 31 g ai/ha; for Kochia plant response rating (0 to 100 scale): 125 g ai/ha
Summary of the method: as §1

[5] = tested on: oat, wild (wild oat, Avena fatua); test: as above; settings: 10 days, 0 = no effect, 100 = complete control; for Oat, Wild plant response rating (0-100): 31 g ai/ha; for Oat, Wild plant response rating (0 to 100 scale): 125 g ai/ha
Summary of the method: as §1

[6] = tested on: palmer (palmer amaranth, palmer pigweed, Amaranthus palmeri); test: as above; settings: 10 days, 0 = no effect, 100 = complete control; for Amaranth, Palmer plant response rating (0-100): 31 g ai/ha; for Amaranth, Palmer plant response rating (0 to 100 scale): 125 g ai/ha
Summary of the method: as §1

[7] = tested on: ragweed (common ragweed, Ambrosia artemisiifolia); test: as above; settings: 10 days, 0 = no effect, 100 = complete control; for Ragweed plant response rating (0-100): 31 g ai/ha; for Ragweed plant response rating (0 to 100 scale): 125 g ai/ha
Summary of the method: as §1

[8] = tested on: ryegrass, Italian (italian ryegrass, Lolium multiflorum); test: as above; settings: 10 days, 0 = no effect, 100 = complete control; for Ryegrass, Italian plant response rating (0-100): 31 g ai/ha; for Ryegrass, Italian plant response rating (0 to 100 scale): 125 g ai/ha
Summary of the method: as §1

soybean (Glycine max) [9] = test: as above; settings: 10 days, 0 = no effect, 100 = complete control; for Soybean plant response rating (0-100): 31 g ai/ha; for Soybean plant response rating (0 to 100 scale): 125 g ai/ha
Summary of the method: as §1

[10] = tested on: wheat (Triticum aestivum); test: as above; settings: 10 days, 0 = no effect, 100 = complete control; for Wheat plant response rating (0-100): 31 g ai/ha; for Wheat plant response rating (0 to 100 scale): 125 g ai/ha
Summary of the method: as §1

[11] = tested on: barnyardgrass (Echinochloa crus-galli); test: Test A postemergence application, visual injury rating 0-100; settings: Postemergence
Summary of the method: as §1

[12] = tested on: blackgrass (Alopecurus myosuroides); test: as above; settings: Postemergence
Summary of the method: as §1

corn (Zea mays) [13] = test: as above; settings: Postemergence
Summary of the method: as §1

[14] = tested on: galium (catchweed bedstraw, Galium aparine); test: as above; settings: Postemergence
Summary of the method: as §1

[15] = tested on: horseweed (Erigeron canadensis); test: as above; settings: Postemergence
Summary of the method: as §1

kochia (Bassia scoparia) [16] = test: as above; settings: Postemergence
Summary of the method: as §1

[17] = tested on: oat, wild (wild oat, Avena fatua); test: as above; settings: Postemergence
Summary of the method: as §1

[18] = tested on: palmer (palmer amaranth, palmer pigweed, Amaranthus palmeri); test: as above; settings: Postemergence
Summary of the method: as §1

[19] = tested on: ragweed (common ragweed, Ambrosia artemisiifolia); test: as above; settings: Postemergence
Summary of the method: as §1

[20] = tested on: ryegrass, Italian (italian ryegrass, Lolium multiflorum); test: as above; settings: Postemergence
Summary of the method: as §1

soybean (Glycine max) [21] = test: as above; settings: Postemergence
Summary of the method: as §1

[22] = tested on: wheat (Triticum aestivum); test: as above; settings: Postemergence
Summary of the method: as §1

[23] = tested on: barnyardgrass (Echinochloa crusgalli); test: Test B flooded paddy test, visual plant response rating 0-100; settings: 250 g ai/ha, Flood, applied to paddy water, evaluated after 13 days
Summary of the method: (§2)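 Compounds applied to standing paddy water (3 cm above soil, maintained for the test duration) on 2-leaf-stage plants; visual rating vs controls at 13 days, greenhouse.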

[24] = tested on: ducksalad (Heteranthera limosa); test: as above; settings: 250 g ai/ha, Flood, applied to paddy water, evaluated after 13 days
Summary of the method: as §2

rice (Oryza sativa) = test: as above; settings: 250 g ai/ha, Flood, applied to paddy water, evaluated after 13 days
Summary of the method: as §2

[25] = tested on: sedge, umbrella (small-flower umbrella sedge, Cyperus difformis); test: as above; settings: 250 g ai/ha, Flood, applied to paddy water, evaluated after 13 days
Summary of the method: as §2

[26] = 31 g ai/ha, greenhouse 10 days, 0 no effect, 100 complete control
[27] = 125 g ai/ha, 10 days, 0 is no effect, 100 is complete control

Structure (SMILES): CC(C)OC(=O)C1=CCC(NC(=O)C2(C)CN(c3cc(Cl)cc(Cl)c3)C(=O)O2)C1 (stereo not drawn) [Compound 70]
- Barnyardgrass plant response rating (0-100) [1]: 30
- Barnyardgrass plant response rating (0 to 100 scale) [1]: 90
- Blackgrass plant response rating (0-100) [2]: 10
- Blackgrass plant response rating (0 to 100 scale) [2]: 30
- Corn plant response rating (0-100) (corn (Zea mays) [3]): 0
- Corn plant response rating (0 to 100 scale) (corn (Zea mays) [3]): 20
- Kochia plant response rating (0-100) (kochia (Bassia scoparia) [4]): 0
- Kochia plant response rating (0 to 100 scale) (kochia (Bassia scoparia) [4]): 40
- Oat, Wild plant response rating (0-100) [5]: 0
- Oat, Wild plant response rating (0 to 100 scale) [5]: 20
- Amaranth, Palmer plant response rating (0-100) [6]: 30
- Amaranth, Palmer plant response rating (0 to 100 scale) [6]: 90
- Ragweed plant response rating (0-100) [7]: 10
- Ragweed plant response rating (0 to 100 scale) [7]: 10
- Ryegrass, Italian plant response rating (0-100) [8]: 0
- Ryegrass, Italian plant response rating (0 to 100 scale) [8]: 70
- Soybean plant response rating (0-100) (soybean (Glycine max) [9]): 0
- Soybean plant response rating (0 to 100 scale) (soybean (Glycine max) [9]): 30
- Wheat plant response rating (0-100) [10]: 0
- Wheat plant response rating (0 to 100 scale) [10]: 70
- Barnyardgrass plant response rating (0 to 100 scale) [11, 26]: 90
- Barnyardgrass plant response rating (0 to 100 scale) [11, 27]: 90
- Blackgrass plant response rating (0 to 100 scale) [12, 26]: 50
- Blackgrass plant response rating (0 to 100 scale) [12, 27]: 80
- Corn plant response rating (0 to 100 scale) (corn (Zea mays) [13]; [26]): 90
- Corn plant response rating (0 to 100 scale) (corn (Zea mays) [13]; [27]): 100
- Galium plant response rating (0 to 100 scale) [14, 26]: 80
- Galium plant response rating (0 to 100 scale) [14, 27]: 80
- Horseweed plant response rating (0 to 100 scale) [15, 26]: 0
- Horseweed plant response rating (0 to 100 scale) [15, 27]: 0
- Kochia plant response rating (0 to 100 scale) (kochia (Bassia scoparia) [16]; [26]): 80
- Kochia plant response rating (0 to 100 scale) (kochia (Bassia scoparia) [16]; [27]): 80
- Oat, Wild plant response rating (0 to 100 scale) [17, 26]: 30
- Oat, Wild plant response rating (0 to 100 scale) [17, 27]: 80
- Amaranth, Palmer / Pigweed, Palmer plant response rating (0 to 100 scale) [18, 26]: 90
- Amaranth, Palmer / Pigweed, Palmer plant response rating (0 to 100 scale) [18, 27]: 90
- Ragweed plant response rating (0 to 100 scale) [19, 26]: 0
- Ragweed plant response rating (0 to 100 scale) [19, 27]: 50
- Ryegrass, Italian plant response rating (0 to 100 scale) [20, 26]: 70
- Ryegrass, Italian plant response rating (0 to 100 scale) [20, 27]: 70
- Soybean plant response rating (0 to 100 scale) (soybean (Glycine max) [21]; [26]): 80
- Soybean plant response rating (0 to 100 scale) (soybean (Glycine max) [21]; [27]): 90
- Wheat plant response rating (0 to 100 scale) [22, 26]: 80
- Wheat plant response rating (0 to 100 scale) [22, 27]: 90
- Plant response rating, Barnyardgrass (0 to 100 scale, 0 is no effect and 100 is complete control) [23]: 50
- Plant response rating, Ducksalad (0 to 100 scale, 0 is no effect and 100 is complete control) [24]: 65
- Plant response rating, Rice (0 to 100 scale, 0 is no effect and 100 is complete control) (rice (Oryza sativa)): 60
- Plant response rating, Sedge, Umbrella (0 to 100 scale, 0 is no effect and 100 is complete control) [25]: 98

Structure (SMILES): CC1(C(=O)NC2CC=C(C(=O)OCC(F)(F)F)C2)CN(c2cc(Cl)cc(Cl)c2)C(=O)O1 (stereo not drawn) [Compound 71]
- Barnyardgrass plant response rating (0-100) [1]: 50
- Barnyardgrass plant response rating (0 to 100 scale) [1]: 90
- Blackgrass plant response rating (0-100) [2]: 0
- Blackgrass plant response rating (0 to 100 scale) [2]: 50
- Corn plant response rating (0-100) (corn (Zea mays) [3]): 30
- Corn plant response rating (0 to 100 scale) (corn (Zea mays) [3]): 50
- Kochia plant response rating (0-100) (kochia (Bassia scoparia) [4]): 70
- Kochia plant response rating (0 to 100 scale) (kochia (Bassia scoparia) [4]): 90
- Oat, Wild plant response rating (0-100) [5]: 20
- Oat, Wild plant response rating (0 to 100 scale) [5]: 30
- Amaranth, Palmer plant response rating (0-100) [6]: 90
- Amaranth, Palmer plant response rating (0 to 100 scale) [6]: 100
- Ragweed plant response rating (0-100) [7]: 0
- Ragweed plant response rating (0 to 100 scale) [7]: 30
- Ryegrass, Italian plant response rating (0-100) [8]: 40
- Ryegrass, Italian plant response rating (0 to 100 scale) [8]: 70
- Soybean plant response rating (0-100) (soybean (Glycine max) [9]): 10
- Soybean plant response rating (0 to 100 scale) (soybean (Glycine max) [9]): 70
- Wheat plant response rating (0-100) [10]: 60
- Wheat plant response rating (0 to 100 scale) [10]: 90
- Barnyardgrass plant response rating (0 to 100 scale) [11, 26]: 90
- Barnyardgrass plant response rating (0 to 100 scale) [11, 27]: 90
- Blackgrass plant response rating (0 to 100 scale) [12, 26]: 80
- Blackgrass plant response rating (0 to 100 scale) [12, 27]: 90
- Corn plant response rating (0 to 100 scale) (corn (Zea mays) [13]; [26]): 100
- Corn plant response rating (0 to 100 scale) (corn (Zea mays) [13]; [27]): 100
- Galium plant response rating (0 to 100 scale) [14, 26]: 80
- Galium plant response rating (0 to 100 scale) [14, 27]: 80
- Horseweed plant response rating (0 to 100 scale) [15, 26]: 10
- Horseweed plant response rating (0 to 100 scale) [15, 27]: 70
- Kochia plant response rating (0 to 100 scale) (kochia (Bassia scoparia) [16]; [26]): 80
- Kochia plant response rating (0 to 100 scale) (kochia (Bassia scoparia) [16]; [27]): 90
- Oat, Wild plant response rating (0 to 100 scale) [17, 26]: 40
- Oat, Wild plant response rating (0 to 100 scale) [17, 27]: 90
- Amaranth, Palmer / Pigweed, Palmer plant response rating (0 to 100 scale) [18, 26]: 90
- Amaranth, Palmer / Pigweed, Palmer plant response rating (0 to 100 scale) [18, 27]: 90
- Ragweed plant response rating (0 to 100 scale) [19, 26]: 60
- Ragweed plant response rating (0 to 100 scale) [19, 27]: 60
- Ryegrass, Italian plant response rating (0 to 100 scale) [20, 26]: 60
- Ryegrass, Italian plant response rating (0 to 100 scale) [20, 27]: 70
- Soybean plant response rating (0 to 100 scale) (soybean (Glycine max) [21]; [26]): 70
- Soybean plant response rating (0 to 100 scale) (soybean (Glycine max) [21]; [27]): 90
- Wheat plant response rating (0 to 100 scale) [22, 26]: 80
- Wheat plant response rating (0 to 100 scale) [22, 27]: 90
- Plant response rating, Barnyardgrass (0 to 100 scale, 0 is no effect and 100 is complete control) [23]: 80
- Plant response rating, Ducksalad (0 to 100 scale, 0 is no effect and 100 is complete control) [24]: 70
- Plant response rating, Rice (0 to 100 scale, 0 is no effect and 100 is complete control) (rice (Oryza sativa)): 85
- Plant response rating, Sedge, Umbrella (0 to 100 scale, 0 is no effect and 100 is complete control) [25]: 100
